From patent publication US20250276034A1, “RELEASE-CONTROLLED TOPICAL INJECTION COMPOSITION CONTAINING CYCLIC PEPTIDE AND PREPARATION METHOD THEREFOR” (ORIENTBIO INC., priority 2021, published 2025)
In brackets after ≈: the same amount, converted by molar mass.

Columns and labels:
[1] = Determination of crystallinity by X-ray diffraction (XRD); format: physicochemical; settings: raw powder and after evaporation or drowning-out crystallization
Method: XRD measurement conditions and a crystallization method used in this experiment are as follows.
X-ray diffractometer (model name: MiniFlex, Rigaku, Tokyo, Japan/-X-ray generator: graphite monochromatized Cu Kα radiation (λ=1.5418 Å, 2θ range: from 10° to 30° with a step size of 0.02°/−Scanning rate: 1.0°/min)

[2] = Determination of crystallinity by differential scanning calorimetry (DSC); format: physicochemical; settings: raw powder, heating curves
Method: Differential scanning calorimetry (DSC) was used to identify a difference in crystallinity between cyclosporine A and OND-1 by determining the melting point, glass transition temperature, and recrystallization of the drugs. DSC measurement conditions were as follows.
DSC (model name: DSC Q2000; manufacturer: TA instruments; purging gas: N2 gas (flow: 70 mL/min); heating rate: 5° C./min; isothermal temperature: 10° C./min; cycle number: 1 (from 20° C. to 200° C.)

[3] = Partition coefficient (log P); format: physicochemical
Solubility in water = format: physicochemical
[4] = In-vitro skin penetration and skin deposition (Franz diffusion cell); format: in vitro ADME; settings: porcine skin, 200 μg OND-1 in 0.2 ml olive oil, 37° C.
Method: A percutaneous absorption diffusion test (Franz diffusion cell) was conducted to determine skin penetration of position 3-substituted cyclosporine derivatives by topical skin application.
Specifically, frozen porcine skin was thawed, followed by removal of subcutaneous fat from the dermis, and then the skin was cut into a disc shape with a diameter of 3 cm. Then, the skin was mounted in a skin permeation device (Franz diffusion, receptor volume: 5 ml, diffusion area: 0.785 cm^2) with the stratum corneum facing an upper donor chamber and the dermis facing a lower receptor chamber. […] Hourly, 500 μl of a receiving solution (PBS containing 0.2% Tween 80, pH: 7.4) was sampled, followed by replenishment with an equal volume of fresh one.
The position 3-substituted cyclosporine derivative in the sampled solution was subjected to quantitative analysis by HPLC, followed by calculation of the average value of five replicates to determine the permeation amount of the position 3-substituted cyclosporine derivative.
After 24 hours of use, the skin was removed from the skin permeation device, washed several times with ethanol, dried, and tape-stripped (10 times with scotch tape) to completely remove any residual drug from the surface thereof. The collected skin samples were lysed by incubation with collagenase type I (Gibco®) solution at 37° C. for 24 hours. Thereafter, samples were obtained by a liquid-liquid phase extraction method using methyl tert-butyl ether (MTBE), followed by quantitative analysis of the position 3-substituted cyclosporine derivative by HPLC to calculate the quantity of drug deposited in the skin.
Details of the liquid-liquid extraction method are as follows. A 200 μl to 400 μl aliquot of each of the lysed skin samples was dispensed, followed by addition of 1.2 ml of MTBE. After high-speed shaking for 10 minutes, an organic solvent layer (1 ml) was separated by centrifugation (13,000 rpm, 3 minutes) and then dried under nitrogen flow for 10 minutes. Thereafter, the organic solvent layer was dissolved with a reconstituted solvent (75% acetonitrile) and filtered through a syringe filter to obtain a sample for analysis.

[5] = Drug remaining at administration site, non-administration site and in blood after topical injection (LC/MS); format: in vivo, mice (C57BL/6)
Method: Specifically, the drug level in blood was determined by a liquid-liquid extraction method using methyl tert-butyl ether (MTBE) and LC/MS analysis. Preparation of skin samples at a targeted site and a non-administration site and the liquid-liquid-phase extraction method using MTBE were the same as in Experimental Example 9. […] After initially increasing the proportion of mobile phase B to 20% for 3 minutes to equilibrate the mobile phase, the flow rate of the mobile phase was 0.4 ml/min and the sample injection volume was 3 μl. In addition, as a mass spectrometer, a 4000 Q TRAP Mass Spectrometer system from Applied Bioscience was used.

Cyclosporine A [CsA, reference compound]
XRD pattern [1]: crystalline XRD pattern | crystallinity by DSC [2]: crystalline

C/C=C/C[C@@H](C)[C@@H](O)[C@H]1C(=O)N[C@@H](CC)C(=O)N(C)[C@H](SC)C(=O)N(C)[C@@H](CC(C)C)C(=O)N[C@@H](C(C)C)C(=O)N(C)[C@@H](CC(C)C)C(=O)N[C@@H](C)C(=O)N[C@H](C)C(=O)N(C)[C@@H](CC(C)C)C(=O)N(C)[C@@H](CC(C)C)C(=O)N(C)[C@@H](C(C)C)C(=O)N1C [OND-1, [D-2-methylthio-Sar^3]cyclosporine A]
XRD pattern [1]: amorphous XRD pattern | crystallinity by DSC [2]: amorphous | logP [3]: 3.84 | solubility (Solubility in water): 10 µg/mL (≈ 8.01 µM) | Penetration rate (μg/cm^2) ([4]; 6 hr): 1.3 μg/cm^2 | Penetration rate (μg/cm^2) ([4]; 14 hr): 1.1 μg/cm^2 | Penetration rate (μg/cm^2) ([4]; 20 hr): 0.2 μg/cm^2 | Penetration rate (μg/cm^2) ([4]; 24 hr): 1.1 μg/cm^2 | Analysis of OND-1 level in systemic blood (μg/ml) ([5]; C57BL/6 mice, topical injection of depot solution containing particles of Example 1-B, individual test subjects 1-5): Not detected | Quantity of OND-1 remaining at non-administration site (μg/g) ([5]; C57BL/6 mice, topical injection of depot solution containing particles of Example 1-B, skin, individual test subjects 1-5): Not detected | OND-1 detected in the skin at the site of topical administration ([5]; mice, topical injection): highly detected | OND-1 detected in the surrounding skin or the systemic blood ([5]; mice, topical injection): rarely detected
